Data as given in patent US9358297B2, “Posaconazole intravenous solution formulations stabilized by substituted β-cyclodextrin” (Merck Sharp & Dohme Corp., priority 2010, dated 2016).
Values after ≈ are worked out from the molar mass of the structure shown. Like-named read-outs stand apart in the source and are kept apart here.

How the values were obtained:
[1] = Posaconazole solubility in acidified Captisol solutions; format: physicochemical; conditions: for solubility: acidified Captisol solution
Description: In an effort to evaluate the range of posaconazole solubilities that could be achieved at feasible pH's, a series of solutions was prepared with a fixed Captisol® concentration. Utilizing an acidic solution of 20% Captisol® (w/v), the solubility of posaconazole was increased more than 1000 times and it was determined that a target concentration of 5 mg/mL could be achieved.
Posaconazole solubility was also evaluated in acidified solutions with different Captisol® concentrations. […] Therefore, at some pH values, as the Captisol® concentration increases, the ratio of Captisol® to solubilized posaconazole will decrease. Based on this solubility effect, a formulation could be developed whereby for the same posaconazole daily dosage, the daily dose of Captisol® could be decreased.
Hydrochloric acid was used as an acidifier in the posaconazole formulation. However, several additional acidifiers (i.e., citric, sulfuric, maleic, phosphoric, acetic, L-tartaric, D-tartaric, DL-tartaric, methanesulfonic, naphthalenesulfonic, p-toluenesulfonic, lactic, L-lactic, L-ascorbic and malic acid, as well as, glycine hydrochloride) were also evaluated in regard to posaconazole solubilization.

[2] = Effect of co-solvents and non-ionic surfactants on posaconazole solubility in 100 mM Captisol; format: physicochemical; conditions: pH 4.5, aqueous with cosolvent or surfactant or cyclodextrin, thermodynamic from solid
Description: In an effort to explore further improvements to the formulation, the effects of various co-solvents and non-ionic surfactants, on the solubility of posaconazole in a 100 mM Captisol® solution, were examined. The Captisol® solutions were adjusted with HCl to pH 4.5 and an appropriate amount of co-solvent was added. An excess amount of posaconazole was added to the pH-adjusted cyclodextrin/co-solvent solution and the solutions were allowed to equilibrate for a period of three days. The contents of the vials were then centrifuged and the supernatant was assayed for posaconazole.

[3] = Posaconazole solubility in modified β and γ-cyclodextrins; format: physicochemical; conditions: for solubility: pH 4.5, aqueous with cosolvent or surfactant or cyclodextrin; for fold more posaconazole solubilized than Captisol: 100 mM cyclodextrin solutions
Description: The solubilities of posaconazole in each of several modified β and γ-cyclodextrins were evaluated. Solubilization of posaconazole was tested with three gamma cyclodextrins; SBE (5.2)-gamma, SBE (5.2) Et (3.9)-gamma and SBE (5.2) Et (4.9)-gamma cyclodextrin, (CyDex, Inc.).
On the other hand, some changes in β-cyclodextrin substitutions did lead to greater solubilization. Utilizing 100 mM cylodextrin solutions at pH 4.5, solubilization of posaconazole with SBE (4.6)-β, SBE (4.6)-Et (3.5)-β and SBE (4.6)-Et (8.5)-β cyclodextrins, versus Captisol®, was evaluated. The SBE (4.6)-Et (3.5)-β and SBE (4.6)-Et (8.5)-β cyclodextrins solubilized 2.6 and 6.6 fold more posaconazole (respectively) than did Captisol® (See FIG. 2). However, the extensive Captisol® safety information outweighed the potential benefits of greater solubilization and, for this reason, formulations with other sulfobutyl ether cyclodextrins were not further developed.

[4] = neutral and basic aqueous solutions; cited from earlier work
[5] = in water; cited from earlier work

CC[C@@H]([C@H](C)O)n1ncn(-c2ccc(N3CCN(c4ccc(OC[C@@H]5CO[C@@](Cn6cncn6)(c6ccc(F)cc6F)C5)cc4)CC3)cc2)c1=O [Posaconazole, posaconazole]
solubility ([1]; pH 3, aqueous with cosolvent or surfactant or cyclodextrin, 20% Captisol, pH 3.0): 8700 µg/mL (≈ 12.4 mM)
solubility ([1]; pH 3.1, aqueous with cosolvent or surfactant or cyclodextrin, 20% Captisol, pH 3.1, calculated average of measured solubility at pH 3.0 and pH 3.2): 7800 µg/mL (≈ 11.1 mM)
solubility ([1]; pH 3.1, aqueous with cosolvent or surfactant or cyclodextrin, 40% Captisol, pH 3.1): 22500 µg/mL (≈ 32.1 mM)
solubility ([1]; pH 3.2, aqueous with cosolvent or surfactant or cyclodextrin, 20% Captisol, pH 3.2): 6900 µg/mL (≈ 9.85 mM)
solubility ([1]; pH 3.4, aqueous with cosolvent or surfactant or cyclodextrin, 20% Captisol, pH 3.4): 5200 µg/mL (≈ 7.42 mM)
solubility ([1]; pH 3.6, aqueous with cosolvent or surfactant or cyclodextrin, 20% Captisol, pH 3.6): 4000 µg/mL (≈ 5.71 mM)
solubility ([1]; pH 3.8, aqueous with cosolvent or surfactant or cyclodextrin, 20% Captisol, pH 3.8): 3100 µg/mL (≈ 4.42 mM)
posaconazole solubilization with additional acidifiers versus hydrochloric acid ([1]; citric, sulfuric, maleic, phosphoric, acetic, tartaric, sulfonic, lactic, ascorbic, malic acids, glycine hydrochloride, same pH): no improvement in solubility
solubility at 3 days ([2]; Captisol solution with co-solvent, 100 mM Captisol pH 4.5 + 10% PEG 400): 1280 µg/mL
solubility at 3 days ([2]; Captisol solution with co-solvent, 100 mM Captisol pH 4.5 + 10% PVP): 640 µg/mL
solubility at 3 days ([2]; Captisol solution with co-solvent, 100 mM Captisol pH 4.5 + 10% Propylene Glycol): 410 µg/mL
solubility at 3 days ([2]; Captisol solution with surfactant, 100 mM Captisol pH 4.5 + 0.1% Poloxamer F-68): 1630 µg/mL
solubility at 3 days ([2]; Captisol solution with surfactant, 100 mM Captisol pH 4.5 + 0.1% Tween 20): 1710 µg/mL
solubility at 3 days ([2]; Captisol solution with surfactant, 100 mM Captisol pH 4.5 + 0.1% Tween 80): 1740 µg/mL
solubility at 3 days ([2]; Captisol solution, Control (100 mM Captisol), pH 4.5, three days equilibration): 1770 µg/mL (≈ 2.53 mM)
fold less solubility with gamma cyclodextrins than with Captisol ([3]; pH 4.5): approximately 8 fold
solubility ([3]; highest posaconazole solubility achieved): 189 µg/mL (≈ 0.27 mM)
solubility ([3]; posaconazole solubility): 1510 µg/mL (≈ 2.15 mM)
solubility [4]: less than 1 μg/mL

SBE (4.6)-Et (3.5)-β cyclodextrin
fold more posaconazole solubilized than Captisol ([3]; pH 4.5): 2.6 fold

SBE (4.6)-Et (8.5)-β cyclodextrin
fold more posaconazole solubilized than Captisol ([3]; pH 4.5): 6.6 fold

Sulfobutyl ether-β-cyclodextrins, (SBE-β-CD) sodium salt [Captisol®]
solubility [5]: >800 mg/mL in water
